The record followed here is patent US12351576B2, “FGFR inhibitor, preparation method therefor and application thereof” (Abbisko Therapeutics Co., Ltd., priority 2018, dated 2025).

Each structure is given as a SMILES string. Read-outs that look alike come from different tables or passages of the source.

One assay concerns the target FGFR1 (Homo sapiens (Human), UniProt P11362). Put plainly: In vitro biochemical kinase assay (Caliper Assay), FGFR1. The note with it: enzyme 0.25 nM, ATP 382 μM, 20 minutes; read-out: Enzymatic activity IC50(nM) FGFR1. As for the experimental part:
(§1) I. In Vitro Biochemical Kinase Assay of FGFR 1˜3
(§2) Caliper Assay was used in the present invention to determine the inhibitory activities of the compounds against FGFR1, FGFR2, and FGFR3. The specific experimental procedure was as follows: • 1. The kinase reaction in the present invention was carried out in 384-well plates, the kinase(Carna) at a certain concentration and ATP at a certain concentration and 1 μM of peptide FAM-P22 (GL Biochem, Cat. No. 112393)) was incubated to react for a certain time at 28° C. in a reaction system consisting of 50 mM HEPES, […], 0.0015% Brij-35 and basic kinase buffer; for FGFR1, the enzyme concentration was 0.25 nM and ATP concentration was 382 μM and the reaction time was 20 minutes; for FGFR2, the enzyme concentration was 2.5 nM, ATP concentration was 1 μM, and the reaction time was 40 minutes; for FGFR3, the enzyme concentration was 8 nM, ATP concentration was 4.7 μM, and the reaction time was 30 minutes: • 2. The reaction was terminated with a stop solution (100 mM HEPES, pH 7.5, 0.2% Caliper coating, reagent, 50 mM EDTA and 0.015% Brij35); • 3. The plate with the terminated kinase reaction was transferred to the Caliper workstation to read the data; • 4. the phosphorylated and unphosphorylated peptides were separated by the Caliper microfluid migration shift technique, and the analyte was transferred by a constant buffer flow through the chip, the migration of the substrate peptide was monitored by the labeled fluorescent signal, and the kinase activity was calculated by the amount of the phosphate-based peptide formed. • 5. IC50 was determined by non-linear regression analysis of percent inhibition at different concentration level of the compound.

In the next assay the target is FGFR2 (Homo sapiens (Human), UniProt P21802). Put plainly: In vitro biochemical kinase assay (Caliper Assay), FGFR2. As to conditions: enzyme 2.5 nM, ATP 1 μM, 40 minutes; read-out: Enzymatic activity IC50(nM) FGFR2. As to the method:
as §1, §2

Assay [1] deals with Snu-16 gastric cancer cells (FGFR2 gene amplification). The experiment in a line: Cell proliferation assay (Cell Titer Glo), Snu-16. Type of assay: cell-based. The note with it: Homo sapiens, SNU-16, 72 h, Snu-16 cells, 3 days, CTG, read-out: Cellular IC50 (nM) Sun16. As for the experimental part:
(§3) II. Cell Proliferation Assay (Cell Titer Glo(CTG) Assay)
(§4) The FGFR signal pathway dependent inhibitory effect of the compound in the present invention on cell proliferation was assessed by survival test using CTG reagent (Promega, 4G7573). Cell lines representative of a variety of tumor types, including H1581 lung cancer cells (FGFR1 gene amplification), Snu-16 gastric cancer cells (FGFR2 gene amplification), and RT112 bladder carcinoma cells (FGFR3-TACC3 fusion) from Nanjing Cobioer Biosciences, were selected for the assay. The specific experimental procedure was as follows: • 1. 90 μL of cells were seeded into a 96-well plate processed with TCM (Costar 43904), and incubated overnight at 37° C. in a 5% CO2 incubator; afterwards, 10 μL of the culture medium containing the compound at 10 fold of its final concentration was added; • 2. The dose-dependent effect was evaluated by a serial dilution of the test compound, starting from 10 μM or a lower concentration. • 3. The cells were incubated at 37° C. under 5% C02 for 3 days, then added 50 μL CTG, and read the data with Envision (Pelkin Elmer) to quantify the ATP level in the cells. The ATP levels in cells with treatment of inhibitor at a variety of concentrations were compared with those in cells of the control group (in which DMSO was added into the medium) to evaluate the compound percent inhibition of cell proliferation/survival. • 4. The compound half growth inhibitory concentration (IC50) was determined in Graphpad Prism by 4-parameter curve fitting.
On the technique in general: Cellular ATP, detected with luciferase, serves as a proxy for viable cell number.

For assay [2], the system named is H1581 lung cancer cells (FGFR1 gene amplification). Put plainly: Cell proliferation assay (Cell Titer Glo), H1581. Type of assay: cell-based. As to conditions: 3 days, CTG, read-out: Cellular IC50 (nM) H1581. As to the method:
as §3, §4

Assay [3] has as its system RT112 bladder carcinoma cells (FGFR3-TACC3 fusion). The experiment in a line: Cell proliferation assay (Cell Titer Glo), RT112. As to conditions: Homo sapiens, RT-112, 72 h, 3 days, CTG, read-out: Cellular IC50 (nM) RT112. It counts as cell-based. As for the experimental part:
as §3, §4

Another assay deals with FGFR3 (Homo sapiens (Human), UniProt P22607). Put plainly: In vitro biochemical kinase assay (Caliper Assay), FGFR3. As to conditions: enzyme 8 nM, ATP 4.7 μM, 30 minutes; read-out: Enzymatic activity IC50(nM) FGFR3. As for the experimental part:
as §1, §2

Sequence of FGFR2 (P21802 22-821): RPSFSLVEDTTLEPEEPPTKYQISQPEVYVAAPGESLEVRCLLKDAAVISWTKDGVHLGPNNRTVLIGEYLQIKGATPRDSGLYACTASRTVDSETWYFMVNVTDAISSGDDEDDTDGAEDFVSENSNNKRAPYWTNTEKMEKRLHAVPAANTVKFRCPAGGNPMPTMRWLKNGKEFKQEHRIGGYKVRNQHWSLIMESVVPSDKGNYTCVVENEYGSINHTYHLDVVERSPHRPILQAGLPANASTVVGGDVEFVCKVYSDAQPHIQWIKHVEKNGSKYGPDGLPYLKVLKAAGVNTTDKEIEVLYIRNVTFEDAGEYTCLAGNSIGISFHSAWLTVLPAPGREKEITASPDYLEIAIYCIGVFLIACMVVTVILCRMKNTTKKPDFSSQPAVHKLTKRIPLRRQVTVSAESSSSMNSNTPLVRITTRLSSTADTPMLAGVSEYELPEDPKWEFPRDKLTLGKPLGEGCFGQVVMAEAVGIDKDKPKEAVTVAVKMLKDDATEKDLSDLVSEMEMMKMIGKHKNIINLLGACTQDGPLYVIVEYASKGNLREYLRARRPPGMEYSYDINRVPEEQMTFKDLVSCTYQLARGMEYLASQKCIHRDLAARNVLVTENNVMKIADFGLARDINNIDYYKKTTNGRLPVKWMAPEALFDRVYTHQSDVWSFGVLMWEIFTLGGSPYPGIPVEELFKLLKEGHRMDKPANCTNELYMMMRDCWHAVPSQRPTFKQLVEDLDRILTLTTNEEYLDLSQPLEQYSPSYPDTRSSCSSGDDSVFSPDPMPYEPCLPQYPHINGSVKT
Sequence of FGFR3 (P22607 23-806): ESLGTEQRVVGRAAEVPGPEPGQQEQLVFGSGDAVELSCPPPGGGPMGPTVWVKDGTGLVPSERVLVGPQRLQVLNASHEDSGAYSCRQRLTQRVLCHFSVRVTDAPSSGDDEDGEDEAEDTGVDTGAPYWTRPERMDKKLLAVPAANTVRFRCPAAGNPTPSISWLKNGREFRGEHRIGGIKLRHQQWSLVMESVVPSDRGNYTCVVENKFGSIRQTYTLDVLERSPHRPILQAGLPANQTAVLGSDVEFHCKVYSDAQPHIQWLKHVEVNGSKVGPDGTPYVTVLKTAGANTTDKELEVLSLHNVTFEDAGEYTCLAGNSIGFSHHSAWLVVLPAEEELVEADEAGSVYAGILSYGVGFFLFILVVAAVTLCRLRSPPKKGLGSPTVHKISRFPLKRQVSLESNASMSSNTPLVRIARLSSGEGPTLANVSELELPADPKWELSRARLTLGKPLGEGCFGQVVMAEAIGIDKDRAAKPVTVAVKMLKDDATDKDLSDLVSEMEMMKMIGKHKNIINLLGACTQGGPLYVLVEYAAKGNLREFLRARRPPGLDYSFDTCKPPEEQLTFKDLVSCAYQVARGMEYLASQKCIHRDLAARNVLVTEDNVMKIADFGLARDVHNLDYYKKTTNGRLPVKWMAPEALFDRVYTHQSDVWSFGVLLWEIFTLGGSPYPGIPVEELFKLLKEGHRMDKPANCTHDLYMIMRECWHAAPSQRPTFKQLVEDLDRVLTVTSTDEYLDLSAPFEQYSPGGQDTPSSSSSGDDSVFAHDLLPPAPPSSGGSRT
Sequence of FGFR1 (P11362 22-822): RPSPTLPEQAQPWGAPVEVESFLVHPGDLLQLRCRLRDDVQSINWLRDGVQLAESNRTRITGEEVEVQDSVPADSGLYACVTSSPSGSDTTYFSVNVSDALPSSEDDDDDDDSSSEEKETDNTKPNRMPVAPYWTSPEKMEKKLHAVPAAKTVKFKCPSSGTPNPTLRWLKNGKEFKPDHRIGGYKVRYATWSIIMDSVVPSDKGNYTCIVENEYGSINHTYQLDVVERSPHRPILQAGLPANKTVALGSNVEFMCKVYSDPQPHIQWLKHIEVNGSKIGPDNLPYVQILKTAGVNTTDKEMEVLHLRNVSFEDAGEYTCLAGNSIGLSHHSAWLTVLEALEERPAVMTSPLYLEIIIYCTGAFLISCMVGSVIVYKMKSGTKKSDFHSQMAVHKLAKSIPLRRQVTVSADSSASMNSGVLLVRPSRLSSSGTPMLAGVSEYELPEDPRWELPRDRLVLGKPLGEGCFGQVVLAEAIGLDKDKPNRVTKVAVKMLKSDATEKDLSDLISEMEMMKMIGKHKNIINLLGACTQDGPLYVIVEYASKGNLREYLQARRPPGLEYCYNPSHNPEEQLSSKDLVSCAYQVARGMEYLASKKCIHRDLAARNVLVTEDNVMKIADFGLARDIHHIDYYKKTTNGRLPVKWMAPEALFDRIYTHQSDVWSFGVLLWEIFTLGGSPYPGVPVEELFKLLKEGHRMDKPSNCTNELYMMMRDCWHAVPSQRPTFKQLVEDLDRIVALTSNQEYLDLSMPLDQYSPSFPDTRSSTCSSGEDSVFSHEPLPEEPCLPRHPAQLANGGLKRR

One may read the IC50 as the midpoint of a concentration-inhibition curve. As for `COc1cc(OC)c(Cl)c(-c2cc3cnc(-c4ccc(C5(C#N)CCC5)nc4)cc3n(C3CCOC3)c2=O)c1Cl` (centres unmarked) [Example 16, 1-(5-(3-(2,6-dichloro-3,5-dimethoxyphenyl)-2-oxo-1-(tetrahydrofuran-3-yl)-1,2-dihydro-1,6-naphthyridin-7-yl)pyridin-2-yl)cyclobutane-1-carbonitrile], the half-inhibitory concentration (IC50) fell in the range of 50 to 500 nM at FGFR1; 10 to 50 nM at FGFR2; 10 to 50 nM in assay [1]; 50 to 500 nM in assay [2] (Homo sapiens, NCI-H1581, 72 h); 50 to 500 nM in assay [3].
`CCn1c(=O)c(-c2c(Cl)c(OC)cc(OC)c2Cl)cc2cnc(-c3cnn(CCN4CCOCC4)c3)cc21` [Example 10, 3-(2,6-dichloro-3,5-dimethoxyphenyl)-1-ethyl-7-(1-(2-morpholinoethyl)-1H-pyrazol-4-yl)-1,6-naphthyridin-2(1H)-one]: the IC50 is 10 to 50 nM at FGFR1; no more than 5 nM at FGFR2; no more than 5 nM at FGFR3; 10 to 50 nM in assay [1]; 50 to 500 nM in assay [2] (Homo sapiens, NCI-H1581, 72 h); 10 to 50 nM in assay [3].
As for `COc1cc(OC)c(F)c(-c2cc3cnc(-c4cnn(C)c4)cc3n(C3CCOC3)c2=O)c1F` (centres unmarked) [Example 28, 3-(2,6-difluoro-3,5-dimethoxyphenyl)-7-(1-methyl-1H-pyrazol-4-yl)-1-(tetrahydrofuran-3-yl)-1,6-naphthyridin-2(1H)-one], the IC50 was no more than 5 nM at FGFR1; no more than 5 nM on FGFR2; no more than 5 nM in assay [1]; 10 to 50 nM in assay [2] (Homo sapiens, NCI-H1581, 72 h); no more than 5 nM in assay [3].
`COc1cc(OC)c(Cl)c(-c2cc3cnc(-c4cnn(CCN5CCOCC5)c4)cc3n(C)c2=O)c1Cl` [Example 15, 3-(2,6-dichloro-3,5-dimethoxyphenyl)-1-methyl-7-(1-(2-morpholinoethyl)-1H-pyrazol-4-yl)-1,6-naphthyridin-2(1H)-one]: the IC50 on FGFR1 fell in the range of 50 to 500 nM; on FGFR2, 5 to 10 nM; on FGFR3 it was 50 to 500 nM; in assay [1], 10 to 50 nM; in assay [2] (Homo sapiens, NCI-H1581, 72 h) it was 50 to 500 nM; in assay [3], 50 to 500 nM.
As to `COc1cc(OC)c(Cl)c(-c2cc3cnc(-c4cnn(CCN5CCOCC5)c4)cc3n(C3CCOC3)c2=O)c1Cl` (centres unmarked) [Example 18, 3-(2,6-dichloro-3,5-dimethoxyphenyl)-7-(1-(2-morpholinoethyl)-1H-pyrazol-4-yl)-1-(tetrahydrofuran-3-yl)-1,6-naphthyridin-2(1H)-one], the IC50 in assay [1] (numeric values) was 6 nM; in assay [2] (Homo sapiens, NCI-H1581, 72 h), 50 to 500 nM; in assay [3] (numeric values) it was 4.1 nM.
Consider `COc1cc(OC)c(F)c(-c2cc3cnc(-c4ccc(C5(C#N)CCC5)nc4)cc3n(C3CCOC3)c2=O)c1F` (centres unmarked) [Example 32, 1-(5-(3-(2,6-difluoro-3,5-dimethoxyphenyl)-2-oxo-1-(tetrahydrofuran-3-yl)-1,2-dihydro-1,6-naphthyridin-7-yl)pyridin-2-yl)cyclobutane-1-carbonitrile], for which the IC50 was 5 to 10 nM at FGFR1; no more than 5 nM on FGFR2; 10.7 nM in assay [1] (numeric values); 50 to 500 nM in assay [2] (Homo sapiens, NCI-H1581, 72 h); 2.5 nM in assay [3] (numeric values).
For `COc1cc(OC)c(F)c(-c2cc3cnc(-c4cnn(CCN5CCOCC5)c4)cc3n(C3CCOC3)c2=O)c1F` (centres unmarked) [Example 35, 3-(2,6-difluoro-3,5-dimethoxyphenyl)-7-(1-(2-morpholinoethyl)-1H-pyrazol-4-yl)-1-(tetrahydrofuran-3-yl)-1,6-naphthyridin-2(1H)-one], the IC50 is 5 to 10 nM in assay [1]; 50 to 500 nM in assay [2] (Homo sapiens, NCI-H1581, 72 h); no more than 5 nM in assay [3].
Turning to `COc1cc(OC)c(Cl)c(-c2cc3cnc(-c4cnn(C)c4)cc3n(C)c2=O)c1Cl` [Example 2, 3-(2,6-dichloro-3,5-dimethoxyphenyl)-1-methyl-7-(1-methyl-1H-pyrazol-4-yl)-1,6-naphthyridin-2(1H)-one], the IC50 is 10 to 50 nM on FGFR1; 5 to 10 nM on FGFR2; 50 to 500 nM on FGFR3; 10 to 50 nM in assay [1]; 50 to 500 nM in assay [2] (Homo sapiens, NCI-H1581, 72 h); 50 to 500 nM in assay [3].
As for `COc1cc(OC)c(Cl)c(-c2cc3cnc(-c4cnn(C)c4)cc3n(C3CCOC3)c2=O)c1Cl` (stereo in doubt) [Example 21, (R)-3-(2,6-dichloro-3,5-dimethoxyphenyl)-7-(1-methyl-1H-pyrazol-4-yl)-1-(tetrahydrofuran-3-yl)-1,6-naphthyridin-2(1H)-one], the IC50 at FGFR1 is 5 to 10 nM; on FGFR2 it was no more than 5 nM; on FGFR3, no more than 5 nM; in assay [1], 5 to 10 nM; in assay [2] it was 50 to 500 nM.
